Data from US9464076B2, “Benzothiophene derivative” (Daiichi Sankyo Company, Limited, priority 2013, dated 2016).
Structures can show the parent of a compound that is named as a salt.

Experiments:
[1] = molecular target: PDE10A (H-PDE10A2, Human Phosphodiesterase 10A2) (Homo sapiens (Human), UniProt Q9Y233); assay: Measurement of PDE10A inhibitory activity-1 (3H-cAMP, recombinant enzyme); assay type: biochemical; conditions: H-PDE10A2, 64 nM cAMP, 25° C., 2 hours
Description: To a solution containing 20 mM Tris-HCl (pH 7.5), 1 mM MgCl2, 100 μM EDTA, 330 μg/ml bovine serum albumin, 50 kU/ml 5′-nucleotidase, 0.1 μCi ^3H-cAMP (64 nM cAMP), and PDE10A (H-PDE10A2, Human Phosphodiesterase 10A2, Scottish Biomedical), a test compound was added, and the mixture was reacted at 25° C. for 2 hours. To the reaction solution, QAE-Sephadex (17-0190-01, GE Healthcare Japan Corp.) suspended in 10 mM HEPES-Na (pH 7.0) (hereinafter, also referred to as a “QAE-Sephadex suspension”) was added, and the mixture was shaken for 1 minute and left standing for 5 minutes to obtain a supernatant. To the supernatant, a QAE-Sephadex suspension was further added, and the mixture was shaken for 1 minute and left standing for 5 minutes. Then, the obtained supernatant was transferred to LumaPlate (PerkinElmer, Inc.) and assayed using a radiation counter (TopCount NXT, PerkinElmer, Inc.).
The value of the sample reacted without the addition of both a test compound and PDE10A was defined as 0%, and the value of the sample reacted in the presence of PDE10A without the addition of a test compound was defined as 100%.

[2] = test system: Male C57BL/6 Cr mice; assay: Test on suppression of phencyclidine-induced hyperlocomotion in mice; assay type: in vivo, mouse; conditions: Mus musculus, po, 1 h, locomotor activity, test compound 10 mg/kg oral, phencyclidine 5 mg/kg s.c. approx. 1 hour later, measured for 1 hour
Description: Male C57BL/6 Cr mice (Japan SLC, Inc.) (8 weeks old) were used in the experiment. A test compound was suspended at 1 mg/mL in a 0.5% hydroxypropylcellulose solution to prepare a suspension for administration. The suspension of the test compound or a solvent (0.5% hydroxypropylcellulose solution) was orally administered at a dose of 10 mL/kg to each mouse. After the administration, the mouse was immediately placed in a locomotor activity measurement apparatus (Muromachi Kikai Co., Ltd., locomotor activity measurement system SUPERMEX). Approximately 1 hour later, phencyclidine (5 mg/10 mL/kg) or a solvent (10 mL/kg saline) was subcutaneously administered to the mouse. The locomotor activity was measured from immediately after the subcutaneous administration to 1 hour later.
Percent inhibition exceeding 100 means that when the activity of the phencyclidine administration control group was defined as 100, the activity of the group given a test compound was lower than that of the solvent administration control group.

[3] = molecular target: PDE10A (Homo sapiens (Human), UniProt Q9Y233); assay: Measurement of PDE10A inhibitory activity-2 (PDE10A fraction prepared from MOLT-4 cells); assay type: biochemical; conditions: PDE10A fraction from MOLT-4 cells (peak around 250 mM NaCl)
PDE10A, sequence (Q9Y233 whole entry): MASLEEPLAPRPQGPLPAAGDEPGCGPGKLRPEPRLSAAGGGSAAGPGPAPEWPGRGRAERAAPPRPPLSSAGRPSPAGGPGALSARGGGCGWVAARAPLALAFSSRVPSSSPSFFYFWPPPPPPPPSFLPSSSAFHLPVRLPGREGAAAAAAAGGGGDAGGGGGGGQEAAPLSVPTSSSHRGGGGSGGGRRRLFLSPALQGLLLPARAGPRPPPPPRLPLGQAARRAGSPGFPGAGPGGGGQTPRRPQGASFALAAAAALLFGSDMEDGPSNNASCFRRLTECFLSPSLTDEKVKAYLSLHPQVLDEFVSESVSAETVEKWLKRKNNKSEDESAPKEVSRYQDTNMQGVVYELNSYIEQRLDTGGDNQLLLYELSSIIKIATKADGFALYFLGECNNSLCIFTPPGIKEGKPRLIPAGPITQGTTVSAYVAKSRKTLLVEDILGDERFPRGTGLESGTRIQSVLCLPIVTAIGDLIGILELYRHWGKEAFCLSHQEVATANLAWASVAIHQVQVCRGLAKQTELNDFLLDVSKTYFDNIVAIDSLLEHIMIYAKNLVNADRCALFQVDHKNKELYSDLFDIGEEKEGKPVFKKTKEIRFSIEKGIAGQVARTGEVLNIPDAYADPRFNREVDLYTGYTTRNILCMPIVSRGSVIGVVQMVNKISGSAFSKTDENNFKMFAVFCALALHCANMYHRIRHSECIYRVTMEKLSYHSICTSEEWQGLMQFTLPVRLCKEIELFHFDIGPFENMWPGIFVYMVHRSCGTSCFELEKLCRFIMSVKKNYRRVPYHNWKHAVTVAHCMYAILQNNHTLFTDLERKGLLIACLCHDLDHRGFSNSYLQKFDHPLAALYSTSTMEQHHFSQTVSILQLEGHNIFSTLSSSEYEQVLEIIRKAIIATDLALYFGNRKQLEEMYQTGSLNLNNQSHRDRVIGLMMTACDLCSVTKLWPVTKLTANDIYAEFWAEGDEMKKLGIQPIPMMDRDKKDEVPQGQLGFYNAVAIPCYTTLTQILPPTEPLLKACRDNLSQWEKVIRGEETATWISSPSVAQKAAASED
In short: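 Enzyme source was a PDE10A-containing fraction from MOLT-4 cell soluble extract, resolved by HiTrap Q anion exchange with a 0–0.8 M NaCl gradient and selected by cAMP-hydrolysing activity. IC50 determined with this fraction by the same procedure as the preceding PDE10A assay.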

PDE10A (H-PDE10A2, Human Phosphodiesterase 10A2), sequence (Q9Y233 267-1055): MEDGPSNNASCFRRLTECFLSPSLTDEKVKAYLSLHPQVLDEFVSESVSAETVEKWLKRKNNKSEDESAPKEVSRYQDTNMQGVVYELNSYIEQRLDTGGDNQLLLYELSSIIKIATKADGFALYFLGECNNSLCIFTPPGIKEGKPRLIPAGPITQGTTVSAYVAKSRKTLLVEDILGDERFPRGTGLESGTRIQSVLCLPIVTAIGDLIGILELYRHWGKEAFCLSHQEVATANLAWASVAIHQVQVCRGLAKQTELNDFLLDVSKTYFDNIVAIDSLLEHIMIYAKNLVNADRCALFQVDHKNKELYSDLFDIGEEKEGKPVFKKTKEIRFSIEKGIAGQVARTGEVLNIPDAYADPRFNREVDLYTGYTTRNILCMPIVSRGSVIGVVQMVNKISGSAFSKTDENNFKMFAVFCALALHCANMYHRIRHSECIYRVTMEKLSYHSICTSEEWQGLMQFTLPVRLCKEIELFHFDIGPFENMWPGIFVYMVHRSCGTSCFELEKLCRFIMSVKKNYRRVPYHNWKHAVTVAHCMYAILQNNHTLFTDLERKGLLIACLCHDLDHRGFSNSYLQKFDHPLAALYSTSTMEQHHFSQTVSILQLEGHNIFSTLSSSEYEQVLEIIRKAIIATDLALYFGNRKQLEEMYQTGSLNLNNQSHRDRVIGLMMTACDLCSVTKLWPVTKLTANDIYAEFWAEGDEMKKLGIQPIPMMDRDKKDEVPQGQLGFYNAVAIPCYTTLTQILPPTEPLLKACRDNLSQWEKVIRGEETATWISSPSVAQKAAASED

Compound | IC50 [3] | inhibition in vivo at 10 mg/kg [2] | further results
CC(=O)c1ccc(C(C)=O)c2c(C)c(C(=O)Nc3cc(C(C)(C)O)c4ccccc4n3)sc12 [Example 3, 4,7-Diacetyl-N-(4-(2-hydroxypropan-2-yl)quinolin-2-yl)-3-methylbenzo[b]thiophene-2-carboxamide hydrochloride] |  |  | IC50 ([1]; hydrochloride): 5.9 nM
COCc1ccc(C(C)=O)c2sc(C(=O)Nc3cc(C(C)(C)O)c4ccccc4n3)c(C)c12 [Example 27, 7-Acetyl-N-(4-(2-hydroxypropan-2-yl)quinolin-2-yl)-4-(methoxymethyl)-3-methylbenzo[b]thiophene-2-carboxamide hydrochloride] |  |  | IC50 ([1]; hydrochloride): 1.6 nM
CC(=O)c1ccc(C(C)=O)c2c(C)c(C(=O)Nc3cc(C(C)(C)O)c4ccccc4n3)sc12 [Example 6, 4,7-Diacetyl-N-(4-(2-hydroxypropan-2-yl)quinolin-2-yl)-3-methylbenzo[b]thiophene-2-carboxamide methanesulfonate] |  |  | IC50 ([1]; methanesulfonate): 5.1 nM
CC(=O)c1ccc(C(C)=O)c2c(C)c(C(=O)Nc3cc(C(C)(C)O)c4ccccc4n3)sc12 [Example 5, 4,7-Diacetyl-N-(4-(2-hydroxypropan-2-yl)quinolin-2-yl)-3-methylbenzo[b]thiophene-2-carboxamide semisulfate] |  |  | IC50 [1]: 11 nM
COCc1ccc(C(C)=O)c2sc(C(=O)Nc3ccc4c(C(=O)N5CC(OC)C5)cccc4n3)c(C)c12 [Example 107, 7-Acetyl-N-(5-((3-methoxyazetidin-1-yl)carbonyl)quinolin-2-yl)-4-(methoxymethyl)-3-methylbenzo[b]thiophene-2-carboxamide hydrobromide] |  |  | IC50 ([1]; hydrobromide): 0.73 nM
COCc1ccc(C(C)=O)c2sc(C(=O)Nc3cc(C(C)(C)O)c4ccccc4n3)c(C)c12 [Example 28, 7-Acetyl-N-(4-(2-hydroxypropan-2-yl)quinolin-2-yl)-4-(methoxymethyl)-3-methylbenzo[b]thiophene-2-carboxamide hydrobromide] |  |  | IC50 ([1]; hydrobromide): 2 nM
COCc1ccc(C(C)=O)c2sc(C(=O)Nc3ccc4c(CS(C)(=O)=O)cccc4n3)c(C)c12 [Example 111, 7-Acetyl-4-(methoxymethyl)-3-methyl-N-(5-((methylsulfonyl)methyl)quinolin-2-yl)benzo[b]thiophene-2-carboxamide methanesulfonate] |  |  | IC50 ([1]; methanesulfonate): 1.1 nM
COCc1ccc(C(C)=O)c2sc(C(=O)Nc3ccc4c(COP(=O)(O)O)cccc4n3)c(C)c12 [Example 87, (2-(7-Acetyl-4-(methoxymethyl)-3-methylbenzo[b]thiophene-2-carboxamido)quinolin-5-yl)methyl dihydrogen phosphate hydrochloride] | 0.6 nM | 92% | 
COCc1ccc(C(C)=O)c2sc(C(=O)Nc3ccc4c(CS(C)(=O)=O)cccc4n3)c(C)c12 [Example 109, 7-Acetyl-4-(methoxymethyl)-3-methyl-N-(5-((methylsulfonyl)methyl)quinolin-2-yl)benzo[b]thiophene-2-carboxamide] |  |  | IC50 [1]: 0.61 nM
COCc1ccc(C(C)=O)c2sc(C(=O)Nc3ccc4c(C(=O)N5CC(OC)C5)cccc4n3)c(C)c12 [Example 104, 7-Acetyl-N-(5-((3-methoxyazetidin-1-yl)carbonyl)quinolin-2-yl)-4-(methoxymethyl)-3-methylbenzo[b]thiophene-2-carboxamide benzenesulfonate] |  |  | IC50 ([1]; benzenesulfonate): 2.2 nM
CCc1c(C(=O)Nc2cc(CN3CC[C@@H](O)C3)c3ccccc3n2)sc2c(C(C)=O)ccc(COC)c12 [Example 42, (R)-7-Acetyl-3-ethyl-N-(4-((3-hydroxypyrrolidin-1-yl)methyl)quinolin-2-yl)-4-(methoxymethyl)benzo[b]thiophene-2-carboxamide] | 0.92 nM | 85% | 
COCc1ccc(C(C)=O)c2sc(C(=O)Nc3cc(CN4CC[C@@H](O)C4)c4ccccc4n3)c(C)c12 [Example 40, (R)-7-Acetyl-N-(4-((3-hydroxypyrrolidin-1-yl)methyl)quinolin-2-yl)-4-(methoxymethyl)-3-methylbenzo[b]thiophene-2-carboxamide hydrochloride] |  |  | IC50 ([1]; hydrochloride): 0.65 nM
COCc1ccc(C(C)=O)c2sc(C(=O)Nc3cc(C(C)(C)O)c4ccccc4n3)c(C)c12 [Example 26, 7-Acetyl-N-(4-(2-hydroxypropan-2-yl)quinolin-2-yl)-4-(methoxymethyl)-3-methylbenzo[b]thiophene-2-carboxamide] | 1.8 nM | 84% | 
CC(=O)c1ccc(C(C)=O)c2c(C)c(C(=O)Nc3cc(C(C)(C)O)c4ccccc4n3)sc12 [Example 4, 4,7-Diacetyl-N-(4-(2-hydroxypropan-2-yl)quinolin-2-yl)-3-methylbenzo[b]thiophene-2-carboxamide hydrobromide] |  |  | IC50 ([1]; hydrobromide): 5.8 nM
COCc1ccc(C(=O)C(C)C)c2sc(C(=O)Nc3cc(CN4CC[C@@H](O)C4)c4ccccc4n3)c(C)c12 [Example 59, (R)—N-(4-((3-Hydroxypyrrolidin-1-yl)methyl)quinolin-2-yl)-7-isobutyryl-4-(methoxymethyl)-3-methylbenzo[b]thiophene-2-carboxamide dihydrochloride] | 0.31 nM | 67% | 

Continued, in another order:

IC50 [3] | Compound | inhibition in vivo at 10 mg/kg [2] | further results
0.26 nM | COCc1ccc(C(C)=O)c2sc(C(=O)Nc3ccc4c(C(=O)N(C)C)cccc4n3)c(C)c12 [Example 97, 2-(7-Acetyl-4-(methoxymethyl)-3-methylbenzo[b]thiophene-2-carboxamido)-N,N-dimethylquinoline-5-carboxamide] | 50% | 
0.75 nM | COCCOCc1cccc2nc(NC(=O)c3sc4c(C(C)=O)ccc(COC)c4c3C)ccc12 [Example 71, 7-Acetyl-N-(5-((2-methoxyethoxy)methyl)quinolin-2-yl)-4-(methoxymethyl)-3-methylbenzo[b]thiophene-2-carboxamide hydrochloride] | 89% | 
0.57 nM | [2H]C([2H])([2H])OCc1ccc(C(C)=O)c2sc(C(=O)Nc3ccc4c(C(=O)N5CC(OC)C5)cccc4n3)c(C)c12 [Example 121, 7-Acetyl-N-(5-((3-methoxyazetidin-1-yl)carbonyl)quinolin-2-yl)-4-((^2H3)methoxymethyl)-3-methylbenzo[b]thiophene-2-carboxamide] | 59% | 
1.1 nM | COCc1ccc(C(C)=O)c2sc(C(=O)Nc3ccc4c(CN5CC[C@H](O)C5)cccc4n3)c(C)c12 [Example 63, (S)-7-Acetyl-N-(5-((3-hydroxypyrrolidin-1-yl)methyl)quinolin-2-yl)-4-(methoxymethyl)-3-methylbenzo[b]thiophene-2-carboxamide dihydrochloride] | 84% | 
1.1 nM | COCc1ccc(C(C)=O)c2sc(C(=O)Nc3ccc4c(COC(=O)[C@H](C)N)cccc4n3)c(C)c12 [Example 86, (S)-(2-(7-Acetyl-4-(methoxymethyl)-3-methylbenzo[b]thiophene-2-carboxamido)quinolin-5-yl)methyl-2-aminopropanoate] | 88% | 
1.6 nM | COCc1ccc(C(C)=O)c2sc(C(=O)Nc3cc(N4CCN(C)CC4)c4ccccc4n3)c(C)c12 [Example 57, 7-Acetyl-4-(methoxymethyl)-3-methyl-N-(4-(4-methylpiperazin-1-yl)quinolin-2-yl)benzo[b]thiophene-2-carboxamide] | 86% | 
0.53 nM | COCc1ccc(C(C)=O)c2sc(C(=O)Nc3ccc4c(C(C)O)cccc4n3)c(C)c12 (centres unmarked) [Example 76, 7-Acetyl-N-(5-(1-hydroxyethyl)quinolin-2-yl)-4-(methoxymethyl)-3-methylbenzo[b]thiophene-2-carboxamide] | 102% | 
0.39 nM | COCc1ccc(C(C)=O)c2sc(C(=O)Nc3ccc4c(CN5CC(O)C5)cccc4n3)c(C)c12 [Example 65, 7-Acetyl-N-(5-((3-hydroxyazetidin-1-yl)methyl)quinolin-2-yl)-4-(methoxymethyl)-3-methylbenzo[b]thiophene-2-carboxamide dihydrochloride] | 37% | 
